# Results reported in patent US20240269298A1, “PHOSPHONYL DERIVATIVE, AND COMPOSITION AND PHARMACEUTICAL APPLICATION THEREOF” (XIZANG HAISCO PHARMACEUTICAL CO., LTD., priority 2021, published 2024).
# pIC50: −log10 of the molar value. Read-outs that look alike come from different tables or passages of the source.
# Columns and labels:
# [1] = Pharmacokinetic test in mice; assay type: in vivo; conditions: male, ICR, mouse, po, administration i.g. (10 mg/kg), plasma
# Summary of the method: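 Male ICR mice (20-25 g), fasted 12-14 h before dosing and fed 4 h after, received a single intravenous or intragastric dose. Orbital plasma sampled from 0 to 24 h (5 min-24 h points); LC-MS/MS quantitation for PK parameters and bioavailability.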
# [2] = tested on: NCI-H1975 (EGFR-L858R-T790M) cells; assay: Inhibitory activity on proliferation of NCI-H1975 (EGFR-L858R-T790M) cells (CTG, 72 h); assay type: cell-based; conditions: Homo sapiens
# Summary of the method: (§1)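 IC50 values come from S-shaped dose-survival fits of CTG signal expressed as % of vehicle. Compound exposure lasted 72 h at 37 °C with 0.1% DMSO; seeding was 3000 A431 cells/well in DMEM+10% FBS and 1000 NCI-H1975 cells/well in RPMI1640+10% FBS.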
# A431 (EGFR-WT) cells = assay: Inhibitory activity on proliferation of A431 (EGFR-WT) cells (CTG, 72 h); assay type: cell-based; conditions: Homo sapiens, A-431
# Summary of the method: as §1
# [3] = tested on: NCI-H1975 EGFR-L858R-T790M-C797S cells; assay: Inhibitory activity on proliferation of NCI-H1975 EGFR-L858R-T790M-C797S cells (CellTiter-Glo, 72 h); assay type: cell-based; conditions: Homo sapiens
# Procedure: NCI-H1975 EGFR-L858R-T790M-C797S cells were cultured in an incubator at 37° C. with 5% CO2, and the culture medium was RPMI1640+10% FBS+100 μg/mL hygromycin. The cells in the logarithmic phase were collected, and the cell suspension was adjusted to an appropriate concentration with a hygromycin-free culture medium, and then plated on a 96-well plate at a density of 1500 cells/well and a volume of 90 μL. 10 μL of the compounds at different concentrations were added, and a vehicle control group (cells plus DMSO) was provided, wherein the concentration of DMSO was 0.1%. The cell culture plate was cultured in an incubator at 37° C. with 5% CO2 for 72 hours. After the incubation was completed, according to operation instructions for a CellTiter-Glo kit (Promega, G7572), 50 μL of CTG solution, which was already pre-melted and equilibrated to room temperature, was added to each well, and the mixtures were uniformly mixed for 2 min using a microplate shaker. The plate was placed at room temperature for 10 min, and then […] signal values were measured using a microplate reader (Envision 2104). […] was processed based on formula (2), and using the GraphPad Prism 5.0 software and nonlinear regression model, S-shaped dose-survival curves were plotted, and IC50 values were calculated. wherein Vsample was the readout of the drug-treated group, and Vvehicle control was the readout of the control group.
# [4] = molecular target: T1, EGFR protein in NCI-H1975 EGFR-L858R-T790M-C797S cells (Homo sapiens, UniProt P00533, C797S/L858R/T790M); assay: Degradation activity on EGFR protein in NCI-H1975 EGFR-L858R-T790M-C797S cells, Method I (western blot, 72 h); assay type: cell-based; conditions: 72 h incubation, EGFR protein relative to DMSO control
# T1 construct: expressed in transfected cells; host or cells: NCI-H1975 EGFR-L858R-T790M-C797S (kept under hygromycin selection)
# T1 sequence (P00533 25-1210 T790M/C797S/L858R): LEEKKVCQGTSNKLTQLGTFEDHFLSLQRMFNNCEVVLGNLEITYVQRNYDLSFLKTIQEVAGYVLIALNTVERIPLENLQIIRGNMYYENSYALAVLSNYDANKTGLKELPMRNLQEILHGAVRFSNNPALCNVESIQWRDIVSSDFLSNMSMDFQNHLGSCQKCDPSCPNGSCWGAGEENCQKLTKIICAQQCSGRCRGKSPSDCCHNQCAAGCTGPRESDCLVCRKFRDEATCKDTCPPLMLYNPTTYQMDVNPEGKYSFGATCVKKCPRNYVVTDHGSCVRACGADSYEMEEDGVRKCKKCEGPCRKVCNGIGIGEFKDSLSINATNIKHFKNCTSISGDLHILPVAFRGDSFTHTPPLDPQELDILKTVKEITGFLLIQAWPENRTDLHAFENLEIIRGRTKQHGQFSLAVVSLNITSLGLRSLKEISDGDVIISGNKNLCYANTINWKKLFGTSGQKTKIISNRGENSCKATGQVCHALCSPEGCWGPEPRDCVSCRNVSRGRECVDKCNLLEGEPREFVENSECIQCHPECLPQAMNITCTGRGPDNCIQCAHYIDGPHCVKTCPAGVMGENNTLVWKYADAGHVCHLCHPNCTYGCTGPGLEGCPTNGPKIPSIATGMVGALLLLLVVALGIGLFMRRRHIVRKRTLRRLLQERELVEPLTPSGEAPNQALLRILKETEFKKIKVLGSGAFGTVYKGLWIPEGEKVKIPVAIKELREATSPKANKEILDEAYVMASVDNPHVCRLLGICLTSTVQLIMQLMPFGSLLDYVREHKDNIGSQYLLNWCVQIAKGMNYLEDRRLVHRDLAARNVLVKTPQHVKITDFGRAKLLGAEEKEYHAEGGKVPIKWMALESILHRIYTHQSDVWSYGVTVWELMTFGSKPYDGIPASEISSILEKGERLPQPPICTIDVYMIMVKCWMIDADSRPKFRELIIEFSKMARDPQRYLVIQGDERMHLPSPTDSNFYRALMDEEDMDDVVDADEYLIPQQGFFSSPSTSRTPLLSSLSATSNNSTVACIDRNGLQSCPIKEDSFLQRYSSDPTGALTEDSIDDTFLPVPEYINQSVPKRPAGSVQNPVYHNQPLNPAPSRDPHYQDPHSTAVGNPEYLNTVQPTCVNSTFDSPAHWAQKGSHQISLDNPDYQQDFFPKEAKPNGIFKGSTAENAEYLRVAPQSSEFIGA
# Procedure: Protein sample preparation: NCI-H1975 EGFR-L858R-T790M-C797S cells were cultured in an incubator at 37° C. with 5% CO2, and the culture medium was RPMI1640+10% FBS+100 μg/mL hygromycin. The cells in the logarithmic phase were collected, and the cell suspension was adjusted to an appropriate concentration with a hygromycin-free culture medium, plated on a 6-well plate at a density of 200000 cells/well and a volume of 2 mL, and cultured overnight in an incubator at 37° C. with 5% CO2. The next day, the compounds at different concentrations were added. DMSO control wells were provided, wherein the concentration of DMSO in all wells was 0.1%. The 6-well plate was cultured in an incubator at 37° C. with 5% CO2 for 72 h, and then 30 μL of RIPA lysates (Beyotime, Cat. P0013B) containing protease inhibitors (Beyotime, Cat. P0013B) were added. The mixtures were lysed on ice for 30 min. Centrifugation was carried out at 13000 rpm/min at 4° C. for 20 min to collect protein supernatant samples, and protein quantification was performed by the BCA method. Samples for western blot detection were prepared.
# Western blot detection: 20 μg of protein samples were added to each well, subjected to polyacrylamide gel electrophoresis and transferred to a membrane, and then diluted anti-EGFR (CST, Cat. 4267S) and […] (Kangchen, Cat. KC-5G4) antibodies were added and incubated overnight at 4° C. After washing the membrane, diluted goat anti-rabbit (Licor, Cat. 926-32211) and goat anti-mouse (Licor, Cat. 926-68070) antibodies were added and incubated in the dark for 45 min. Scanning and detection at wavelengths of 700 nm and 800 nm were performed with a far-infrared imaging system (Odyssey).
# According to formula (3), the expression level of EGFR protein in the cells relative to the DMSO control group was calculated after incubation with different concentrations of compounds. wherein EGFRcompound was the fluorescence value of EGFR protein after incubation with compounds, and EGFRvehicle was the fluorescence value of EGFR protein in the DMSO control group. Using the Origin 9.2 software, the drug concentration DC50 values when the expression level of EGFR protein was 50% relative to the DMSO control group were calculated.
# [5] = read-out: IC50 (value in brackets)
AUC(0-t) [1] [ng·h/mL],pIC50 ([2]; read-out: IC50 (class symbol)),"pIC50 [2, 5]",pIC50 (A431 (EGFR-WT) cells),pIC50 ([3]; read-out: IC50 (class symbol)),pIC50 ([3]; read-out: IC50 (value)),DC50 [4] [nM],AUC [1] [ng·h/mL],half-life [1] [h],Compound
42300,> 7.00,7.21,≤ 5.00,> 6.70,7.10,< 100,–,–,"COc1cc(N2CCN(CC3CCN(c4ccc5c(c4)C(=O)N(C4CCC(=O)NC4=O)C5=O)CC3)CC2)c(-c2cnn(C)c2)cc1Nc1ncc(Cl)c(Nc2ccc(-c3ccccc3F)cc2P(C)(C)=O)n1 (stereo not shown) [Compound 97, 5-(4-((4-(4-((5-chloro-4-((3-(dimethylphosphoryl)-2′-fluoro-[1,1′-biphenyl]-4-yl)amino)pyrimidin-2-yl)amino)-5-methoxy-2-(1-methyl-1H-pyrazol-4-yl)phenyl)piperazin-1-yl)methyl)piperidin-1-yl)-2-(2,6-dioxopiperidin-3-yl)isoindoline-1,3-dione]"
51000,> 7.00,7.15,≤ 5.00,> 6.70,7.31,< 100,–,–,"COc1cc(N2CCC(N3CCN(c4ccc5c(c4)C(=O)N(C4CCC(=O)NC4=O)C5=O)CC3)CC2)c(-c2cnn(C)c2)cc1Nc1ncc(Br)c(Nc2ccc(-c3ccccc3)cc2P(C)(C)=O)n1 (stereo not shown) [Compound 81, 5-(4-(1-(4-((5-bromo-4-((3-(dimethylphosphoryl)-[1,1′-biphenyl]-4-yl)amino)pyrimidin-2-yl)amino)-5-methoxy-2-(1-methyl-1H-pyrazol-4-yl)phenyl)piperidin-4-yl)piperazin-1-yl)-2-(2,6-dioxopiperidin-3-yl)isoindoline-1,3-dione]"
–,> 7.00,7.43,≤ 5.00,> 6.70,6.94,< 100,70900,3.86,"COc1cc(N2CCN(CC3CCN(c4ccc5c(c4)C(=O)N(C4CCC(=O)NC4=O)C5=O)C3)CC2)c(-c2cnn(C)c2)cc1Nc1ncc(Br)c(Nc2ccc(-c3ccccc3)cc2P(C)(C)=O)n1 (stereo not shown) [Compound 67, 5-(3-((4-(4-((5-bromo-4-((3-(dimethylphosphoryl)-[1,1′-biphenyl]-4-yl)amino)pyrimidin-2-yl)amino)-5-methoxy-2-(1-methyl-1H-pyrazol-4-yl)phenyl)piperazin-1-yl)methyl)pyrrolidin-1-yl)-2-(2,6-dioxopiperidin-3-yl)isoindoline-1,3-dione]"
–,> 7.00,7.49,≤ 5.00,> 6.70,7.34,< 100,47300,5.79,"COc1cc(N2CCN(CC3CCN(c4ccc5c(c4)C(=O)N(C4CCC(=O)NC4=O)C5=O)CC3)CC2)c(-c2cnn(C)c2)cc1Nc1ncc(Br)c(Nc2ccc(-c3ccccc3)cc2P(C)(C)=O)n1 (stereo not shown) [Compound 77, 5-(4-((4-(4-((5-bromo-4-((3-(dimethylphosphoryl)-[1,1′-biphenyl]-4-yl)amino)pyrimidin-2-yl)amino)-5-methoxy-2-(1-methyl-1H-pyrazol-4-yl)phenyl)piperazin-1-yl)methyl)piperidin-1-yl)-2-(2,6-dioxopiperidin-3-yl)isoindoline-1,3-dione]"
25000,> 7.00,7.48,≤ 5.00,> 6.70,7.24,< 100,–,–,"COc1cc(N2CCN(C3CCN(c4ccc5c(c4)C(=O)N(C4CCC(=O)NC4=O)C5=O)CC3)CC2)c(-c2cnn(C)c2)cc1Nc1ncc(Br)c(Nc2ccc(-c3ccccc3)cc2P(C)(C)=O)n1 (stereo not shown) [Compound 99, 5-(4-(4-(4-((5-bromo-4-((3-(dimethylphosphoryl)-[1,1′-biphenyl]-4-yl)amino)pyrimidin-2-yl)amino)-5-methoxy-2-(1-methyl-1H-pyrazol-4-yl)phenyl)piperazin-1-yl)piperidin-1-yl)-2-(2,6-dioxopiperidin-3-yl)isoindoline-1,3-dione]"

# Second part, the compound before the results:
Compound,AUC(0-t) [1] [ng·h/mL],pIC50 ([2]; read-out: IC50 (class symbol)),"pIC50 [2, 5]",pIC50 (A431 (EGFR-WT) cells),pIC50 ([3]; read-out: IC50 (class symbol)),pIC50 ([3]; read-out: IC50 (value)),DC50 [4] [nM],AUC [1] [ng·h/mL],half-life [1] [h]
"COc1cc(N2CCN(CC3CCN(c4ccc5c(c4)C(=O)N(C4CCC(=O)NC4=O)C5=O)CC3)CC2)c(-c2cnn(C)c2)cc1Nc1ncc(Br)c(Nc2ccc(-c3ccccc3F)cc2P(C)(C)=O)n1 (stereo not shown) [Compound 96, 5-(4-((4-(4-((5-bromo-4-((3-(dimethylphosphoryl)-2′-fluoro-[1,1′-biphenyl]-4-yl)amino)pyrimidin-2-yl)amino)-5-methoxy-2-(1-methyl-1H-pyrazol-4-yl)phenyl)piperazin-1-yl)methyl)piperidin-1-yl)-2-(2,6-dioxopiperidin-3-yl)isoindoline-1,3-dione]",47000,> 7.00,7.44,≤ 5.00,> 6.70,7.22,< 100,–,–
"COc1cc(N2CCN(CC3CCN(c4ccc5c(c4)C(=O)N(C4CCC(=O)NC4=O)C5=O)CC3)CC2)c(-c2cnn(C)c2)cc1Nc1ncc(Cl)c(Nc2ccc(-c3ccccc3)cc2P(C)(C)=O)n1 (stereo not shown) [Compound 90, 5-(4-((4-(4-((5-chloro-4-((3-(dimethylphosphoryl)-[1,1′-biphenyl]-4-yl)amino)pyrimidin-2-yl)amino)-5-methoxy-2-(1-methyl-1H-pyrazol-4-yl)phenyl)piperazin-1-yl)methyl)piperidin-1-yl)-2-(2,6-dioxopiperidin-3-yl)isoindoline-1,3-dione]",–,> 7.00,7.34,≤ 5.00,> 6.70,7.17,< 100,35900,4.16
"COc1cc(N2CCC(N3CCC4(CCN(c5ccc6c(c5)C(=O)N(C5CCC(=O)NC5=O)C6=O)CC4)CC3)CC2)c(-c2cnn(C)c2)cc1Nc1ncc(Br)c(Nc2ccc(-c3ccccc3)cc2P(C)(C)=O)n1 (stereo not shown) [Compound 84, 5-(9-(1-(4-((5-bromo-4-((3-(dimethylphosphoryl)-[1,1′-biphenyl]-4-yl)amino)pyrimidin-2-yl)amino)-5-methoxy-2-(1-methyl-1H-pyrazol-4-yl)phenyl)piperidin-4-yl)-3,9-diazaspiro[5.5]undecan-3-yl)-2-(2,6-dioxopiperidin-3-yl)isoindoline-1,3-dione]",4570,> 7.00,7.37,≤ 5.00,> 6.70,7.33,< 100,–,–
"COc1cc(N2CCC(N3CCN(c4ccc5c(c4)C(=O)N(C4CCC(=O)NC4=O)C5=O)CC3)CC2)c(-c2cnn(C)c2)cc1Nc1ncc(Cl)c(Nc2ccc(-c3ccccc3)cc2P(C)(C)=O)n1 (stereo not shown) [Compound 92, 5-(4-(1-(4-((5-chloro-4-((3-(dimethylphosphoryl)-[1,1′-biphenyl]-4-yl)amino)pyrimidin-2-yl)amino)-5-methoxy-2-(1-methyl-1H-pyrazol-4-yl)phenyl)piperidin-4-yl)piperazin-1-yl)-2-(2,6-dioxopiperidin-3-yl)isoindoline-1,3-dione]",–,> 7.00,7.15,≤ 5.00,> 6.70,7.19,< 100,63000,6.88
